The target in one series is E. coli PNP (Escherichia coli, UniProt P0ABP8). Type of series: biochemical.
In the next series the target is T1, human PNP (Homo sapiens, UniProt P00491).
T1 sequence (P00491 1-289): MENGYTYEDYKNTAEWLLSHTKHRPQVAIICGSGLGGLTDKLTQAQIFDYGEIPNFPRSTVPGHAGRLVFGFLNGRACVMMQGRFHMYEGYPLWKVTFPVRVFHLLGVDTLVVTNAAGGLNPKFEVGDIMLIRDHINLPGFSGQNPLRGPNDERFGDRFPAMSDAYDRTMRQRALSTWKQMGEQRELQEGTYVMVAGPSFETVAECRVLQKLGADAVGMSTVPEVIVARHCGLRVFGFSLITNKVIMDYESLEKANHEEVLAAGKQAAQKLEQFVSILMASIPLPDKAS
The series is described as follows: Cleavage of purine analog nucleosides by human PNP (HPLC). The format is biochemical. The note with it: for Percent of substrate cleaved by Human PNP, 1 mM: substrate 1 mM.

For series [1] the following is noted: literature; cited from earlier work.
The test system of the next series is D54-PNP tumors. The series is described as follows: E. coli PNP-transduced D54 glioma tumors in nude mice. The format is in vivo. The note with it: previous studies. As to the method:
Female athymic nude mice (nu/nu) were implanted sc with 2×10^7 cells of either D54 parental tumor cells (D54-wt) or D54 tumor cells that had been transduced with the E. coli PNP (D54-PNP). After the tumors had grown to approximately 150 mg, they were treated ip with either vehicle or 67 mg/kg of MeP-dR (IP) once a day for 3 days (days 6, 7 and 8 after implantation). The tumor sizes were measured twice a week after treatment.
A confirmation experiment was set up exactly as described above, except that animals were treated with two doses of MeP-dR (45 and 67 mg/kg) (FIGS. 10 and 11). The results of this experiment were similar (Table V). There were 8 of 10 complete regressions in mice bearing the D54-PNP tumors that were treated with 67 mg/kg of MeP-dR. In 4 mice the tumors subsequently returned and grew. There were still 4 of 10 tumor-free survivors 60 days after the treatment had stopped. […] There were 2 of 10 complete regressions and 3 partial responses. […] The delay in the time required to double twice due to treatment with MeP-dR was 5 to 6 days in the non-transduced tumors and greater than 24 days in transduced tumors. In this experiment, the growth rate of the D54-PNP tumors was considerably slower than it was in the first experiment. There was no change in the growth rate of the D54-wt tumors. The reason for the slow growth rate of the D54-PNP tumors in this experiment is not known. […] (In other words, if a tumor was too small to measure, it was not included in the average size). This means that the overall tumor regressions in the D54 PNP group are actually much more pronounced than they appear in FIGS. 8-11.

The subject of series [2] is tumor cells transduced with the E. coli PNP. Nature of the series: Killing of PNP-transduced tumor cells in vitro by other prodrugs. Type of series: cell-based. An excerpt:
In addition to MeP-dR, two other prodrugs suitable for E. coli PNP activation in tumor cells can be applied to the methodology of the present invention. These prodrugs are F-araA and 2-F-2′deoxyadenosine. […] As desired, this dose had no effect on control untransduced, tumor cells.

Another series concerns D54 glioma tumors. Nature of the series: D54 tumors of mixed wild-type and transduced cells (80 to 20). The note with it: in vivo.
In the next series the test system is PNP transduced tumors. Type of series: in vivo.
Setting [3] is: substrate 100 μM, 0.1 unit/ml enzyme, 25° C., 1 hour, stopped by boiling.
[4] abbreviates: 25° C., 1 hour, stopped by boiling.
Setting [5] is: 100 μM in the presence of 1 mM deoxycytidine.

“And” between values parts separate entries of the source, which are not always exact repeats. Equal values may be shown once. “Also recorded” adds a separate entry of the source. Read-outs that look alike come from different tables or passages of the source.

Sequence of E. coli PNP (P0ABP8 2-239): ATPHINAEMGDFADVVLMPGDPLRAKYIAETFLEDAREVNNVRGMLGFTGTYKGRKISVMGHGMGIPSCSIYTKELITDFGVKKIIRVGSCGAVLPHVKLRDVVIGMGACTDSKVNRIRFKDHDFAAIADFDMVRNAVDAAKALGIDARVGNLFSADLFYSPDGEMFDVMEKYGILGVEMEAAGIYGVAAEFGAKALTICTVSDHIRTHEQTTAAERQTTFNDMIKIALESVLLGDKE

With `Nc1cc(Cl)c2ncn([C@@H]3O[C@H](CO)[C@@H](O)[C@H]3O)c2n1` [1-deaza-2-amino-6-Cl-purine-riboside, 2-amino-6-chloro-1-deazapurine riboside], at E. coli PNP, the “Percent of substrate cleaved by E. coli PNP, 100 μM” value (from here on “Percent … by E. coli PNP, 100 μM”) was 62(87)16(23) Percent and 41(86)15(21) Percent; the “Percent of substrate cleaved by E. coli PNP, 1 mM” value (shortened to “Percent … by E. coli PNP, 1 mM”) is 62(87)16(23) Percent and 41(86)15(21) Percent; the “Substrate quality for bacterial (E. coli) PNP” value (from here on “Substrate quality for bacterial”) was “good substrates”. For the same molecule, the “Substrate quality for mammalian (human) PNP” value on human PNP (in words) is listed as “poor substrates”. In addition, the “Percent of substrate cleaved by Human PNP, 100 μM” value (from here on “Percent … by Human PNP, 100 μM”) at human PNP (setting [3]) was 0(88) Percent and 0(86) Percent. Further, on human PNP (setting [4]), the “Percent of substrate cleaved by Human PNP, 1 mM” value (“Percent … by Human PNP, 1 mM” for short) is 0(52) Percent and 0(47) Percent. Besides, in series [1], the “Toxicity of prodrug relative to its purine analog” value is “much less toxic than their respective purine analogs”.

With `Nc1nc(F)nc2c1ncn2[C@@H]1O[C@H](CO)[C@@H](O)[C@H]1F` [2-F-2′-F-2′-deoxyadenosine], at E. coli PNP, the “Percent … by E. coli PNP, 100 μM” value is 0(86) Percent; the “Percent … by E. coli PNP, 1 mM” value is 0(21) Percent; the “Substrate quality for bacterial” value is “poor substrates”.

With `C[C@H]1O[C@@H](n2cnc3c(N)nc(F)nc32)[C@H](O)[C@@H]1O` [2-F-5′-deoxyadenosine, 2-fluoro-5′-deoxyadenosine], the “Substrate quality for bacterial” value at E. coli PNP is reported as “good substrates”. For the same molecule, the “Substrate quality for mammalian (human) PNP” value on human PNP (in words) is given as “poor substrates”.

Regarding `Nc1ncnc2c1ncn2[C@H]1CC[C@@H](CO)O1` [2′,3′-dideoxy adenosine, 2′,3′-dideoxyadenosine], the “Substrate quality for bacterial” value on E. coli PNP is given as “poor substrates”. Moreover, the “Substrate quality for mammalian (human) PNP” value at human PNP (in words) is reported as “poor substrates”.

`Nc1ncnc2c1ncn2[C@@H]1O[C@H](CO)C[C@H]1O` [3′-deoxy adenosine, 3′-deoxyadenosine]: the “Substrate quality for bacterial” value on E. coli PNP is on record as “poor substrates”. Besides, the “Substrate quality for mammalian (human) PNP” value at human PNP (in words) is reported as “poor substrates”.

`NC[C@H]1O[C@@H](n2cnc3c(N)ncnc32)[C@H](O)[C@@H]1O` [5′-amino-5′-deoxyadenosine]: on E. coli PNP, the “Substrate quality for bacterial” value was “moderate substrates; also recorded: poorly cleaved”. Further, the “Substrate quality for mammalian (human) PNP” value at human PNP (in words) is “not cleaved”; at human PNP (in words, listed as 50-amino-50-deoxyadenosine) it was “poor substrates”.

Consider `NC(=O)[C@H]1O[C@@H](n2cnc3c(N)ncnc32)[C@H](O)[C@@H]1O` [5′-carboxamide of adenosine], for which, at E. coli PNP, the “Substrate quality for bacterial” value is “poor substrates”. On human PNP, the “Percent … by Human PNP, 100 μM” value was 0(81) Percent and 0(82) Percent; the “Substrate quality for mammalian (human) PNP” value was “poor substrates”.

As to `Nc1cc2ncn(C3O[C@H](CO)[C@@H](O)[C@H]3O)c2c(=O)[nH]1` (stereo partly shown) [7-ribosyl-3-deazaguanine], the “Substrate quality for bacterial” value at E. coli PNP was “good substrates”. For the same molecule, the “Substrate quality for mammalian (human) PNP” value on human PNP (in words) was “poor substrates”. For the same molecule, in series [1], the “Toxicity of prodrug relative to its purine analog” value is reported as “much less toxic than their respective purine analogs”.

Take `OC[C@H]1OC(n2cnc3ncnc(S)c32)[C@H](O)[C@@H]1O` (stereo partly shown) [7-ribosyl-6-mercaptopurine]: the “Substrate quality for mammalian (human) PNP” value on human PNP (in words) is reported as “poor substrates”.

`O=c1[nH]cnc2ncn(C3O[C@H](CO)[C@@H](O)[C@H]3O)c12` (stereo partly shown) [7-ribosyl-hypoxanthine, 7-ribosylhypoxanthine]: the “Substrate quality for bacterial” value at E. coli PNP was “moderate to good substrates”. Also, the “Substrate quality for mammalian (human) PNP” value on human PNP (in words) is listed as “moderate to good substrates”.

With `Nc1nc(F)nc2c1ncn2[C@H]1C[C@H](O)[C@@H](CO)O1` [F-dAdo, 2-fluoro-2′-deoxyadenosine], the “Substrate quality for bacterial” value on E. coli PNP is reported as “good substrates”. Also, the “Substrate quality for mammalian (human) PNP” value at human PNP (in words) is on record as “poor substrates”. Moreover, the “Activity against D54 glioma tumors expressing the E. coli PNP gene” value with D54-PNP tumors is reported as “good activity”. In series [2], the “Killing of PNP-transduced tumor cells in vitro” value is given as “high level killing”. In series [2] (setting [5]), the “Effect on control untransduced tumor cells” value is “no effect” and the “Killing when as few as 1% of tumor cells express the gene” value was “kills cells transduced with the E. coli PNP”. Further, the “Activity against tumors of wild-type and transduced cells at 80 to 20” value in the series on D54 glioma tumors is “less active”. Also, the Tolerability in mice result with PNP transduced tumors (doses similar to MeP-dR) is “without toxicity”. Besides, the “Anti-tumor effect on PNP transduced tumors in mice” value with PNP transduced tumors (mouse, in vivo) is “strong anti-tumor effects”.

`CC1(C)OC2C(C(N)=O)OC(n3cnc4c(N)ncnc43)C2O1` (stereo not shown) [isopropylidine of the 5′-carboxamide of adenosine]: the “Substrate quality for bacterial” value on E. coli PNP is given as “poor substrates”. For the same molecule, on human PNP, the “Percent … by Human PNP, 100 μM” value was 0(81) Percent and 0(82) Percent; the “Substrate quality for mammalian (human) PNP” value was “poor substrates”.

In the case of `Nc1ncnc2c1ncn2C1OC(CO)C(O)C1O` (stereo not shown) [xylosyl adenine], the “Percent … by Human PNP, 100 μM” value at human PNP (setting [3]) is 0(81) Percent and 0(82) Percent.

In the case of `Nc1ncnc2c1ncn2[C@H]1O[C@H](CO)[C@@H](O)[C@H]1O` [α-adenosine], the “Substrate quality for bacterial” value at E. coli PNP is reported as “poorly cleaved”. Moreover, the “Percent … by Human PNP, 100 μM” value on human PNP (# line: assay terminated by filtering and not by boiling) was 0(87**) Percent; at human PNP (setting [3]) it was 0(88) Percent and 0(86) Percent. Further, the “Substrate quality for mammalian (human) PNP” value at human PNP (in words) is reported as “poor substrates; also recorded: not cleaved”. Further, the “Percent … by Human PNP, 1 mM” value on human PNP (setting [4]) was 0(50) Percent and 0(47) Percent.

Consider “xylosyl methylpurine [xylosylmethylpurine]”, for which, on E. coli PNP, the “Percent … by E. coli PNP, 100 μM” value is listed as 0(86) Percent; the “Percent … by E. coli PNP, 1 mM” value was 0(21) Percent; the “Substrate quality for bacterial” value is “poor substrates”. Also, the “Substrate quality for mammalian (human) PNP” value at human PNP (in words) was “poor substrates”. For the same molecule, the “Percent … by Human PNP, 100 μM” value at human PNP (setting [3]) is 0(88) Percent and 0(86) Percent. For the same molecule, the “Percent … by Human PNP, 1 mM” value on human PNP (setting [4]) was 0(50) Percent and 0(47) Percent.

The values above are taken from US6958318B2, “Recombinant bacterial cells for delivery of PNP to tumor cells” (The UAB Research Foundation, priority 1993, dated 2005).
